Series [1] can be described thus: Self-aggregation of peptides alone by ThT fluorescence. Type of series: physicochemical. The conditions noted are these: incubated alone in aq. NaOAc buffer, 48 h. An excerpt:
(§1) NAP Tau Mimics Inhibit Tau Fibrilization In Vitro. We chose thioflavin T (ThT), an amyloid specific fluorescent dye that binds to β-sheet assemblies, to first evaluate the effect of NAPs on recombinant tau aggregation. For these studies, we expressed and purified full-length tau featuring a P301L mutation frequently observed in patients with frontotemporal dementia and Parkinsonism linked to chromosome 17 (FTDP-17). This missense mutation leads to local structure destabilization around the amyloid-forming region resulting in faster aggregation. Recombinant tauP301L aggregated in the presence of equimolar heparin sulfate (t1/2=6.5±0.4 h) starting with a very short 0.5 h lag phase, followed by a 24 h exponential growth phase. […] Compounds 2 and 4 are mono- and diaminated hexapeptides derived from the R2 PHF6* aggregation-prone sequence, whereas compounds 5, 6, 12, and 13 are all derived from the R3 PHF6 sequence. Several other NAPs had no effect on endpoint ThT fluorescence or lacked consistent inhibition across repeated experiments. […] NaOAc buffer, as evidenced by intense ThT fluorescence after 48 h (FIG. 1B).
Design and synthesis of aggregation-resistant backbone-aminated derivatives of mxyl-AD. The data above support the hypothesis that mxyl-AD mimetic macrocycle can engage in native-like hydrophobic cross-b interactions as well as edge-to-edge H-bonds along the fibril axis. We next sought to employ mxyl-AD as a template for the design of tau seeding inhibitors that could potentially cap fibril growth and block propagation. This required us to incorporate a chemical modification onto mxyl-AD that would preclude its ability to self-assemble without disrupting its capacity to adopt the conformation required to bind tau. We therefore designed two backbone N-amino peptide (NAP) derivatives of our tau mimic, mxyl-NAP1 and mxyl-NAP2 (Scheme 1). Each of these analogues features a backbone amide substitution that precludes canonical b-sheet H-bonding along one edge of the macrocycle, while leaving the other edge intact to engage the tau protein. […] Both mxyl-NAP1 and mxyl-NAP2, which feature a single backbone N-amino group within the amyloidogenic PHF6 module, were prepared on solid support starting from Fmoc-protected N-amino dipeptides.

In series [2] the target is T1, tauP301L (Homo sapiens, UniProt P10636, P618L).
T1 construct: we expressed and purified full-length tau featuring a P301L mutation; His6 (N); made in house; host or cells: E. coli BL21 (DE3)
The experiment in a line: Transmission electron microscopy of heparin-induced tauP301L fibrils. The conditions noted are these: 10 μM tauP301L + heparin, 20 μM NAP (2-fold molar excess), 96 h. Type of series: biochemical. How it is done: This is consistent with previous reports showing that the endpoint ThT fluorescence and fibrilization lag time for full-length tau are particularly resistant to perturbation by inhibitors. […] To confirm the effect of NAPs on the growth of mature tau fibrils, we used transmission electron microscopy (TEM) to visualize the morphology and maturity of fibrillar species. Heparin-induced tauP301L fibrils were allowed to grow over 96 h in the presence or absence of inhibitors. Untreated tauP301L afforded large, helical, and amyloid-like filamentous fibrils.
Inhibition of full-length tau fibrilization by mxyl-NAPs in TEM. To confirm the results from ThT assays, we used TEM to visualize tauP301L fibrils in the absence or presence of synthesized NAPs. As expected, heparin-induced tauP301L formed dense networks of mature fibrils (FIG. 8).
Transmission Electron Microscopy. For analyzing fibrils by TEM, aggregation was carried out under conditions similar to the assay performed above but with ThT excluded and a final reaction volume of 100 μL. Samples were incubated in a microcentrifuge tube for 4 days at 37° C. with a mixing speed of 100 rpm. A 10 μL aliquot of the sample was then applied to 400-meshed formvar-/carbon-coated copper grids and negative-stained with 2% uranyl acetate. Micrographs were obtained on a JEOL 2011 transmission electron microscope at 200 kV.

The conditions of series [3]: 24 h, 500 μM.
Procedure: (§2) Human Serum Stability Assay. The stability of NAPs in 25% human serum (MilliporeSigma) was assessed by HPLC. The reaction was started by adding NAPs at a final concentration of 500 μM in pre-warmed serum. The mixture was incubated at 37° C. for 24 h. A 100 μL aliquot of the reaction mixture was taken out at 0, 1, 4, and 24 h and was mixed with an equal volume of 20% trichloroacetic acid and incubated at 4° C. for 15 min to precipitate serum proteins. After centrifugation at 12,000 rpm for 10 min, the supernatant was collected and mixed with an internal standard (1 mg/mL Cbz-Tyr-OH dissolved in MeCN) and stored at −20° C. Samples were then analyzed by LC-MS, and the percentage of peptide remaining was calculated by integrating peaks.
A short description of series [4]: in vitro. The conditions noted are these: human, serum, intact peptide in 25% human serum.
Procedure: as §2
Series [5] has as its system HEK293 cells stably expressing tau-RD (LM)-YFP.
Procedure: MTT cell viability assays were carried out on both HEK293 cells stably expressing tau-RD (LM)-YFP and SH-SY5Y cells. Cells were cultured in the DMEM/F12 complete medium containing 10% FBS, 1% penicillin/streptomycin, and 1% Glutamax in a 75 cm^2 cell culture flask under 5% CO2 at 37° C. Cell viability was determined using the MTT reduction assay. Briefly, 15,000 cells/well were plated in a 96-well tissue culture plate and were allowed to incubate overnight in a CO2 incubator. The medium was aspirated and the NAP inhibitor prepared in complete medium was added at a given final concentration. The plate was then allowed to incubate for additional 48 h in a CO2 incubator, and the medium was aspirated again and replaced with 0.5 mg/mL MTT prepared in complete medium and incubated for additional 3 h. The medium was then replaced with DMSO to dissolve formazan crystals, and the absorbance was measured at 570 nm using a Synergy H1 microplate reader. Each data set was collected from technical replicates on at least 2 different days.
The target of series [6] is T1, tauP301L. The series is described as follows: ThT fluorescence aggregation assay of recombinant tauP301L. Type of series: biochemical. The conditions noted are these: 20 μM NAP (2-fold molar excess), 10 μM tauP301L, heparin, 48 h.
Source text: as §1
Inhibition of full-length tau aggregation by mxyl-NAPs in a ThT assay. […] TauP301L ([…]) aggregated upon incubation with heparin over the course of 2 days, leading to high ThT fluorescence. […] We also synthesized linear and scrambled controls corresponding to each of the NAP inhibitors.
ThT Fluorescence Aggregation Assay. Recombinant tauP301L (10 μM final concentration) and NAP inhibitors (20 μM final concentration) were mixed in an aggregation buffer (100 mM sodium acetate, 10 μM ThT, 10 μM heparin, 2 mM DTT, and 0.5% DMSO, pH: 7.4) in a 96-well clear bottom black plate with a final reaction volume of 200 μL. The plate was then sealed with a clear sealing film and allowed to incubate at 37° C. with continuous shaking in a Biotek Synergy H1 microplate reader. An automated method was used to carry out ThT fluorescence measurements at an excitation wavelength of 444 nm and an emission wavelength of 485 nm at an interval of every 5 min for 48 h. Experiments were carried out in technical replicates on at least 2 different days. Every experiment included control wells that lacked tauP301L, heparin, or NAPs. The average signal from control wells lacking tau was used to subtract the background fluorescence, and the average of the first and last 10 data points of tau+heparin (no inhibitor) wells, after blank subtraction, was used to normalize the data. All data plots were generated with SigmaPlot.

In series [7] the target is T2, Aβ42 (Homo sapiens, UniProt P05067).
T2 construct: Incubation of synthetic, full-length Aβ42 (40 μM)
The experiment in a line: ThT fluorescence assay with Aβ42. Format: biochemical. An excerpt:
A peptidomimetic approach to tau inhibition offers prospects for achieving selectivity over other amyloids rich in f structure. As a preliminary test, we selected our best-performing aggregation-inhibitory tau mimic, 12, and determined its effect on Aβ42 aggregation in vitro (FIG. 6). […] We similarly observed no effect on aggregation kinetics at any of the concentrations tested.

Entries after “also recorded” stand apart in the source; their conditions may differ. *1 amine or outer side, *2 acyl side, *3 side chain or, on linkers, in order; H or OH if unused. Where a SMILES comes first, the peptide text is derived from it. Primed or numbered codes have the meaning given here. [ ]: non-standard residue; d: D form. The star is where a group is joined. aIle′ = Ile with backbone amide N-amino (hydrazide NNH2), CC[C@H](C)[C@@H](C(=O)[*:2])N(N)[*:1]; aVal = Val with backbone amide N-amino (hydrazide NNH2), CC(C)[C@@H](C(=O)[*:2])N(N)[*:1]; X2 = NN([C@@H](Cc1ccc(O)cc1)C(=O)[*:2])[*:1]; X1 = CC[C@H](C)[C@@H](C(=O)[*:2])N(N)[*:1]; N(NH2)LysNH2 = NCCCC[C@@H](C(N)=O)N(N)*; X3 = CC(C)[C@@H](C(=O)[*:2])N(N)[*:1]

T2 sequence (P05067 672-713 limits assumed): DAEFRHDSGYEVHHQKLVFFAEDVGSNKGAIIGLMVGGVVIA
T1 sequence (P10636 1-383 isoform P10636-6 P243L): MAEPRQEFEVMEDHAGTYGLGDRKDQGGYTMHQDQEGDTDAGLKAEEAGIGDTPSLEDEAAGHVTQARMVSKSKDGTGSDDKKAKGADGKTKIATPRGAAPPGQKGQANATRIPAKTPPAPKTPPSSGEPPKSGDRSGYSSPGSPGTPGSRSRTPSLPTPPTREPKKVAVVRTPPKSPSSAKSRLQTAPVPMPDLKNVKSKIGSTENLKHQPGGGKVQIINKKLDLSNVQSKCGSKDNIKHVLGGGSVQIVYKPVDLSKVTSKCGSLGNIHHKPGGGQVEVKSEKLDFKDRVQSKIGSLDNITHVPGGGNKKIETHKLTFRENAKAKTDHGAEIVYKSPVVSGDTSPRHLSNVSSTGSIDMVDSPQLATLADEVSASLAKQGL

As to `CC[C@H](C)[C@@H](C(=O)N[C@H](C(=O)N(N)[C@@H](Cc1ccc(O)cc1)C(=O)N[C@@H](CCCCN)C(N)=O)C(C)C)N(N)C(=O)[C@H](CCC(N)=O)NC(=O)[C@@H](NC(C)=O)C(C)C` [Compound 12, Ac-Val-Gln-aIle-Val-aTyr-Lys-NH2] (Ac-VQ[X1]V[X2]K-NH2), in series [1], the “self-aggregation, ThT fluorescence of peptide alone” value (shortened to “self-aggregation, ThT fluorescence”) is listed as “no such fluorescence”. Further, in series [2], the “tauP301L fibril morphology by TEM” value was “particularly effective at attenuating fibril growth; also recorded: non-fibrillary amorphous aggregates similar to control”. The “intact peptide in 25% human serum” value in series [3] is greater than 80%. The molecule also registered a fraction remaining at 24 h, 500 μM in series [4] greater than 83%. Besides, in series [5], the “toxicity to HEK293 biosensor cells in seeding experiments” value is “did not result in detectable toxicity”. Further, the “endpoint ThT fluorescence of tauP301L” value in series [6] is reported as “significantly reduce”. Moreover, the “effect on Aβ42 aggregation (ThT)” value in series [7] (40 μM Aβ42, up to 4-fold molar excess (160 μM)) is reported as “no inhibitory effect”. Moreover, the “effect on Aβ42 aggregation kinetics” value in series [7] (any of the concentrations tested) is “no effect”. In addition, in series [7] (in vitro), the “selectivity for tau over Aβ42” value is recorded as “in vitro selectivity for tau over Aβ42”.
Turning to `CC[C@H](C)[C@H](NC(=O)[C@H](CCC(N)=O)NC(=O)[C@@H](NC(C)=O)C(C)C)C(=O)N(N)[C@H](C(=O)N[C@@H](Cc1ccc(O)cc1)C(=O)N(N)[C@@H](CCCCN)C(N)=O)C(C)C` [Compound 13, Ac-Val-Gln-Ile-aVal-Tyr-aLys-NH2] (Ac-VQI[X3]Y-{N(NH2)LysNH2}), the “self-aggregation, ThT fluorescence” value in series [1] is reported as “no such fluorescence”. In addition, the “tauP301L fibril morphology by TEM” value in series [2] is reported as “particularly effective at attenuating fibril growth; also recorded: non-fibrillary amorphous aggregates similar to control”. Moreover, the “intact peptide in 25% human serum” value in series [3] is reported as greater than 80%. Besides, in series [4], the amount remaining at 24 h, 500 μM was greater than 83%. In series [5], the “toxicity to HEK293 biosensor cells in seeding experiments” value is given as “did not result in detectable toxicity”. The “endpoint ThT fluorescence of tauP301L” value in series [6] is “significantly reduce”.
“Ac-aVal-Gln-aIle-Ile-Asn-Lys-NH2 (Ac-[aVal]Q[aIle′]INK-NH2; SMILES CC[C@H](C)[C@H](NC(=O)[C@H]([C@@H](C)CC)N(N)C(=O)[C@H](CCC(N)=O)NC(=O)[C@H](C(C)C)N(N)C(C)=O)C(=O)N[C@@H](CC(N)=O)C(=O)N[C@@H](CCCCN)C(N)=O) [Compound 4]”: the “self-aggregation, ThT fluorescence” value in series [1] was “no such fluorescence”. Further, in series [2], the “tauP301L fibril morphology by TEM” value is on record as “particularly effective at attenuating fibril growth; also recorded: non-fibrillary amorphous aggregates similar to control”. In addition, the “endpoint ThT fluorescence of tauP301L” value in series [6] was “significantly reduce”.

Source of the values: US20230399361A1, “MACROCYCLIC PEPTIDES” (UNIVERSITY OF NOTRE DAME DU LAC, priority 2022, published 2023).
